# Experimental data from patent US6339064B1, “Benzylglycosylamides as inhibitors of smooth muscle cell proliferation” (American Home Products Corporation, priority 1998, dated 2002).
# Experiments:
# [1] = system: Porcine Smooth Muscle Cell; assay: Effects of compounds on cell proliferation using 3H thymidine incorporation (porcine smooth muscle cell antiproliferation); format: cell-based; conditions: for IC50: serum/growth factor stimulated cells, 24-36 h incubation; for Porcine Smooth Muscle Cell Antiproliferation, % at 50 μM: control (100%) = maximally stimulated cells
melting point,SMILES,IC50 ([1]; Sus scrofa),"Porcine Smooth Muscle Cell Antiproliferation, % at 50 μM [1]",IC50 [1]
122 to 124 °C,"CC(=O)Nc1cc(C(=O)N[C@@H]2O[C@H](COC(C)=O)[C@@H](O[C@H]3O[C@H](COC(C)=O)[C@@H](OC(C)=O)[C@H](OC(C)=O)[C@H]3OC(C)=O)[C@H](OC(C)=O)[C@H]2OC(C)=O)ccc1Cl [Example 3, 3-(Acetylamino)-4-chloro-N-[2,3,6-tri-O-acetyl-4-O-(2,3,4,6-tetra-O-acetyl-α-D-glucopyranosyl)-β-D-glucopyranosyl}-benzamide]",54.3 µM,,
115 to 119 °C,"CC(=O)OC[C@H]1O[C@@H](NC(=O)c2ccc(Cl)c(N)c2)[C@H](OC(C)=O)[C@@H](OC(C)=O)[C@@H]1O[C@H]1O[C@H](COC(C)=O)[C@@H](OC(C)=O)[C@H](OC(C)=O)[C@H]1OC(C)=O [Example 2, 3-Amino-4-chloro-N-[2,3,6-tri-O-acetyl-4-O-(2,3,4,6-tetra-O-acetyl-α-D-glucopyranosyl)-β-D-glucopyranosyl}-benzamide]",11.1 µM,,
,"COc1ccc(CC(=O)NC2OC(CO)C(OC3OC4COC(c5ccccc5)OC4C(O)C3O)C(O)C2O)cc1OC [Example 46, N-(4′,6′-Benzylidene-β-D-maltosyl)-2-(3,4-dimethoxy-phenyl)-acetamide]",,0% at 50,
,"CCCCOc1ccc(C(=O)NC2OC(CO)C(OC3OC4COC(c5ccccc5)OC4C(O)C3O)C(O)C2O)cc1Cl.O [Example 19, 4-Butoxy-3-chloro-N-[(4′,6′-O-benzylidene)-β-D-maltosyl]-benzamide hydrate]",,35% at 50,
106 to 110 °C,"COc1cc(C(=O)N[C@@H]2O[C@H](COC(C)=O)[C@@H](O[C@H]3O[C@H](COC(C)=O)[C@@H](OC(C)=O)[C@H](OC(C)=O)[C@H]3OC(C)=O)[C@H](OC(C)=O)[C@H]2OC(C)=O)ccc1Cl [Example 22, 4-Chloro-3-methoxy-N-[2,3,6-tri-O-acetyl-4-O-(2,3,4,6-tetra-O-acetyl-α-D-glucopyranosyl)-β-D-glucopyranosyl]benzamide]",18.5 µM,,
,"O=C(NC1OC(COC(=O)c2ccccc2)C(OC2OC3COC(c4ccccc4)OC3C(O)C2O)C(O)C1O)c1ccc(Cl)cc1 [Example 12, N-(6-O-benzoyl-4′,6′-O-benzylidene-β-D-maltosyl)-4-chloro-benzamide]",,,49.2 µM
